pIC50: −log10 of the molar value. Active and inactive are the calls of the source. The rule behind the calls is not given here.
Legend:
[1] = tested on: MDA-MB-231; assay: Antiproliferative activity against human MDA-MB-231 cells measured by MTT assay; assay type: functional, cell-based
[2] = tested on: MCF7; assay: Antiproliferative activity against human MCF-7 cells measured by MTT assay; assay type: functional, cell-based
[3] = tested on: MDA-MB-231; assay: Cytotoxicity against human MDA-MB-231 cells measured by MTT assay; assay type: functional, cell-based
[4] = Selective index, ratio of IC50 for human 293T cells to IC50 of MDA-MB-231 cells; assay type: toxicity; settings: 293T cells versus MDA-MB-231 cells, read-out: Selectivity Index
[5] = Selective index, ratio of IC50 for human 293T cells to IC50 of MCF-7 cells; assay type: toxicity; settings: 293T cells versus MCF-7 cells, read-out: Selectivity Index
[6] = tested on: MDA-MB-231; assay: Induction of mitochondrial apoptosis in human MDA-MB-231 cells assessed as chromatin shrinkage by Hoechst 33258 staining based fluorescence microscopic assay; assay type: functional, cell-based
[7] = tested on: MDA-MB-231; assay: Induction of mitochondrial apoptosis in human MDA-MB-231 cells assessed as formation of apoptotic bodies by Hoechst 33258 staining based fluorescence microscopic assay; assay type: functional, cell-based
[8] = tested on: MCF7; assay: Induction of mitochondrial apoptosis in human MCF-7 cells assessed as formation of apoptotic bodies by Hoechst 33258 staining based fluorescence microscopic assay; assay type: functional, cell-based
[9] = tested on: MCF7; assay: Induction of mitochondrial apoptosis in human MCF-7 cells assessed as accumulation of reactive oxygen species by flow cytometry; assay type: functional, cell-based
[10] = tested on: MDA-MB-231; assay: Induction of mitochondrial apoptosis in human MDA-MB-231 cells assessed as decrease in mitochondrial membrane potential levels at 5 uM measured after 24 hrs by flow cytometry; assay type: functional; design: scale not given: the % may be the effect or the level left
[11] = tested on: MDA-MB-231; assay: Induction of apoptosis in human MDA-MB-231 cells assessed as decrease in Bcl-2 level at 0.56 to 5 uM measured after 24 hrs by Western blot analysis; assay type: functional, cell-based; settings: dose 0.56-5 µM
[12] = tested on: MCF7; assay: Induction of apoptosis in human MCF-7 cells assessed as increase in Bax protein expression at 1.67 to 15 uM measured after 24 hrs by Western blot analysis; assay type: functional, cell-based; settings: dose 1.67-15 µM
[13] = tested on: MCF7; assay: Induction of apoptosis in human MCF-7 cells assessed as increase in production of cleaved caspase-9 at 1.67 to 15 uM measured after 24 hrs by Western blot analysis; assay type: functional, cell-based; settings: dose 1.67-15 µM
[14] = tested on: MCF7; assay: Induction of apoptosis in human MCF-7 cells assessed as increase in production of cleaved caspase-3 at 1.67 to 15 uM measured after 24 hrs by Western blot analysis; assay type: functional, cell-based; settings: dose 1.67-15 µM
[15] = tested on: MCF7; assay: Induction of apoptosis in human MCF-7 cells assessed as decrease in Bcl-2 level at 1.67 to 15 uM measured after 24 hrs by Western blot analysis; assay type: functional, cell-based; settings: dose 1.67-15 µM
[16] = tested on: MDA-MB-231; assay: Cell cycle arrest in human MDA-MB-231 cells assessed as accumulation of cells at G0/G1 phase at 5 uM measured after 24 hrs by propidium iodide staining based flow cytometry (reference value: 44%); assay type: functional
[17] = tested on: MDA-MB-231; assay: Cell cycle arrest in human MDA-MB-231 cells assessed as downregulation of cyclin D1 expression by Western blot analysis; assay type: functional, cell-based
[18] = tested on: MDA-MB-231; assay: Cell cycle arrest in human MDA-MB-231 cells assessed as downregulation of cyclin D3 expression by Western blot analysis; assay type: functional, cell-based
[19] = tested on: MDA-MB-231; assay: Cell cycle arrest in human MDA-MB-231 cells assessed as downregulation of cyclin E1 expression by Western blot analysis; assay type: functional, cell-based
[20] = tested on: MDA-MB-231; assay: Cell cycle arrest in human MDA-MB-231 cells assessed as downregulation of CDK2 expression by Western blot analysis; assay type: functional, cell-based
[21] = tested on: MDA-MB-231; assay: Cell cycle arrest in human MDA-MB-231 cells assessed as downregulation of CDK4 expression by Western blot analysis; assay type: functional, cell-based
[22] = tested on: MDA-MB-231; assay: Cell cycle arrest in human MDA-MB-231 cells assessed as upregulation of p21 level by Western blot analysis; assay type: functional, cell-based
[23] = tested on: MCF7; assay: Cell cycle arrest in human MCF-7 cells assessed as downregulation of CDK4 expression by Western blot analysis; assay type: functional, cell-based
[24] = tested on: MCF7; assay: Cell cycle arrest in human MCF-7 cells assessed as upregulation of p21 level by Western blot analysis; assay type: functional, cell-based
[25] = tested on: MDA-MB-231; assay: Inhibition of PTP1B expression in human MDA-MB-231 cells by Western blot analysis; assay type: functional, cell-based
[26] = tested on: MCF7; assay: Inhibition of PTP1B expression in human MCF7 cells by Western blot analysis; assay type: functional, cell-based
[27] = tested on: MDA-MB-231; assay: Antitumour activity against human MDA-MB-231 cells xenografted in BALB/c nude mouse assessed as tumour growth inhibition at 15 mg/kg, ip administered once for every other day for 20 days relative to control; assay type: functional; settings: MDA-MB-231, ip, 480 h, time 20 day, read-out: TGI
[28] = Toxicity in human MDA-MB-231 cells xenografted in BALB/c nude mouse assessed as change in body weight at 15 to 30 mg/kg, ip administered once for every other day for 20 days relative to control; assay type: organism-based; settings: in vivo, 480 h, dose 15-30 mg/kg, time 20 day
[29] = tested on: MDA-MB-231; assay: Antitumour activity against human MDA-MB-231 cells xenografted in BALB/c nude mouse assessed as upregulation of cleaved caspase-3 level at 15 to 30 mg/kg, ip administered once for every other day for 20 days by Western blot analysis; assay type: functional, organism-based; settings: dose 15-30 mg/kg, time 20.0 day
[30] = tested on: MDA-MB-231; assay: Antitumour activity against human MDA-MB-231 cells xenografted in BALB/c nude mouse assessed as upregulation of cleaved poly(ADP-ribose) polymerase level at 15 to 30 mg/kg, ip administered once for every other day for 20 days by Western blot analysis; assay type: functional, organism-based; settings: dose 15-30 mg/kg, time 20.0 day
[31] = tested on: MDA-MB-231; assay: Antitumour activity against human MDA-MB-231 cells xenografted in BALB/c nude mouse assessed as upregulation of p21 level at 15 to 30 mg/kg, ip administered once for every other day for 20 days by Western blot analysis; assay type: functional, organism-based; settings: dose 15-30 mg/kg, time 20.0 day
[32] = tested on: MDA-MB-231; assay: Antitumour activity against human MDA-MB-231 cells xenografted in BALB/c nude mouse assessed as downregulation of cyclin D3 level at 15 to 30 mg/kg, ip administered once for every other day for 20 days by Western blot analysis; assay type: functional, organism-based; settings: dose 15-30 mg/kg, time 20.0 day
[33] = tested on: MDA-MB-231; assay: Antitumour activity against human MDA-MB-231 cells xenografted in BALB/c nude mouse assessed as downregulation of Bcl-2 level at 15 to 30 mg/kg, ip administered once for every other day for 20 days by Western blot analysis; assay type: functional, organism-based; settings: dose 15-30 mg/kg, time 20.0 day
[34] = tested on: MCF7; assay: Inhibition of PI3K in human MCF7 assessed as Akt phosphorylation by Western blot analysis
[35] = tested on: MDA-MB-231; assay: Induction of mitochondrial apoptosis in human MDA-MB-231 cells assessed as early apoptotic cells at 5 uM measured after 24 hrs by FITC -annexin V/PI double staining based flow cytometric analysis (reference value: 1.2%); assay type: functional
[36] = tested on: MDA-MB-231; assay: Induction of mitochondrial apoptosis in human MDA-MB-231 cells assessed as late apoptotic cells at 5 uM measured after 24 hrs by FITC -annexin V/PI double staining based flow cytometric analysis (reference value: 2.3%); assay type: functional
[37] = tested on: MCF7; assay: Induction of mitochondrial apoptosis in human MCF7 cells assessed as late apoptotic cells at 15 uM measured after 24 hrs by FITC -annexin V/PI double staining based flow cytometric analysis (reference value: 1.1%); assay type: functional
[38] = tested on: MCF7; assay: Cell cycle arrest in human MCF7 cells assessed as accumulation of cells at S phase at 15 uM measured after 24 hrs by propidium iodide staining based flow cytometry (reference value: 16.8%); assay type: functional

CCCC/C=C/CCCCCCCCCC1(O)CC(=O)c2c(O)c(C)c(O)c(C)c2O1 (stereo not drawn)
pIC50 [1]: 5.17
pIC50 [2]: 4.76
pIC50 [3]: 5.17
selectivity ratio [4]: 5.35
selectivity ratio [5]: 2.08
Activity [6]: Active
Activity [7]: Active
Activity [8]: Active
Activity [9]: Active
Activity [10]: 62.2%
Activity [11]: Dose-Dependent Effect
Activity [12]: Dose-Dependent Effect
Activity [13]: Dose-Dependent Effect
Activity [14]: Dose-Dependent Effect
Activity [15]: Dose-Dependent Effect
Activity [16]: 62.4%
Activity [17]: Dose-Dependent Effect
Activity [18]: Dose-Dependent Effect
Activity [19]: Dose-Dependent Effect
Activity [20]: Dose-Dependent Effect
Activity [21]: Dose-Dependent Effect
Activity [22]: Dose-Dependent Effect
Activity [23]: Dose-Dependent Effect
Activity [24]: Dose-Dependent Effect
Activity [25]: Active
Activity [26]: Active
inhibition in vivo at 15 mg/kg [27]: 53.6%
Activity [28]: Not Active
Activity [29]: Active
Activity [30]: Active
Activity [31]: Active
Activity [32]: Active
Activity [33]: Active
inhibition [34]: Dose-Dependent Effect
Activity [35]: 4.8%
Activity [36]: 7%
Activity [37]: 8.9%
Activity [38]: 10.3%

Reference: ChEMBL document CHEMBL5030514, “Discovery of Anti-TNBC Agents Targeting PTP1B: Total Synthesis, Structure-Activity Relationship, In Vitro and In Vivo Investigations of Jamunones” (J Med Chem, 2021)
